# System: not listed separately
# Test: DRUGMATRIX: Phosphodiesterase PDE3 enzyme inhibition (substrate: [3H]cAMP + cAMP)
# Assay type: tissue-based, Homo sapiens
# Conditions: platelet; Not Active = under 50% inhibition at 10 µM
Compound,IC50,Ki
O=NN(CCCl)C(=O)NC1CCCCC1 [LOMUSTINE],Not Active,Not Active
CSc1ccc(/C=C2/C(C)=C(CC(=O)O)c3cc(F)ccc32)cc1 [SULINDAC SULFIDE],Not Active,Not Active
SODIUM NITROPRUSSIDE,Not Active,Not Active
Cc1noc(NS(=O)(=O)c2ccc(N)cc2)c1C [SULFISOXAZOLE],Not Active,Not Active
Cc1cccc(N(C)C(=S)Oc2ccc3ccccc3c2)c1 [TOLNAFTATE],Not Active,Not Active
Cc1oncc1C(=O)Nc1ccc(C(F)(F)F)cc1 [LEFLUNOMIDE],Not Active,Not Active
CC[C@@H](CO)NC(=O)[C@@H]1C=C2c3cccc4[nH]cc(c34)C[C@H]2N(C)C1 [METHYLERGONOVINE],Not Active,Not Active
CC(C)(C)NC(=O)[C@@H]1C[C@@H]2CCCC[C@@H]2CN1C[C@@H](O)[C@H](Cc1ccccc1)NC(=O)[C@H](CC(N)=O)NC(=O)c1ccc2ccccc2n1,Not Active,Not Active

# Biological target: Protein kinase C alpha type (Homo sapiens, UniProt P17252);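 further: inhibition of PKCalpha kinase activity measured in an enzyme assay with histone as the phosphorylation substrate; in other assays of this panel Not Active means under 50% inhibition at 10 µM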
# Assay type: cell-based
# Conditions: sf9
Compound,IC50,Ki
O=NN(CCCl)C(=O)NC1CCCCC1 [LOMUSTINE],Not Active,
CSc1ccc(/C=C2/C(C)=C(CC(=O)O)c3cc(F)ccc32)cc1 [SULINDAC SULFIDE],Not Active,
SODIUM NITROPRUSSIDE,Not Active,Not Active
Cc1noc(NS(=O)(=O)c2ccc(N)cc2)c1C [SULFISOXAZOLE],Not Active,
Cc1cccc(N(C)C(=S)Oc2ccc3ccccc3c2)c1 [TOLNAFTATE],Not Active,
Cc1oncc1C(=O)Nc1ccc(C(F)(F)F)cc1 [LEFLUNOMIDE],Not Active,
CC[C@@H](CO)NC(=O)[C@@H]1C=C2c3cccc4[nH]cc(c34)C[C@H]2N(C)C1 [METHYLERGONOVINE],Not Active,
CC(C)(C)NC(=O)[C@@H]1C[C@@H]2CCCC[C@@H]2CN1C[C@@H](O)[C@H](Cc1ccccc1)NC(=O)[C@H](CC(N)=O)NC(=O)c1ccc2ccccc2n1,Not Active,

# Biological target: T1, Caspase-1 (Homo sapiens, UniProt P29466);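 further: Caspase-1 enzyme inhibition assay with a peptide substrate; in other assays of this panel Not Active means under 50% inhibition at 10 µM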
# T1 sequence (P29466 whole entry): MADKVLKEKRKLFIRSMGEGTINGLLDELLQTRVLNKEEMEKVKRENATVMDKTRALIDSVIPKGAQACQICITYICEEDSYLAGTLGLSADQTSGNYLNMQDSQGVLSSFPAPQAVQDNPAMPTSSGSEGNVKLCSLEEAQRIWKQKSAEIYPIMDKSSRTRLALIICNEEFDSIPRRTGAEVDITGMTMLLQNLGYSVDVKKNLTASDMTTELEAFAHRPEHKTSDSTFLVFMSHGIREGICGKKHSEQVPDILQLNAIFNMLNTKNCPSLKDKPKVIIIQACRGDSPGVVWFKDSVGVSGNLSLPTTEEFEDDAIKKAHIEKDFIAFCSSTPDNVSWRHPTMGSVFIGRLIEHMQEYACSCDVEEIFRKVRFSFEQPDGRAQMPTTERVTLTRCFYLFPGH
# Set-up: species or system Escherichia coli
# Conditions: not given
Compound,IC50,Ki
O=NN(CCCl)C(=O)NC1CCCCC1 [LOMUSTINE],Not Active,
CSc1ccc(/C=C2/C(C)=C(CC(=O)O)c3cc(F)ccc32)cc1 [SULINDAC SULFIDE],Not Active,
SODIUM NITROPRUSSIDE,Not Active,Not Active
Cc1noc(NS(=O)(=O)c2ccc(N)cc2)c1C [SULFISOXAZOLE],Not Active,
Cc1cccc(N(C)C(=S)Oc2ccc3ccccc3c2)c1 [TOLNAFTATE],Not Active,
Cc1oncc1C(=O)Nc1ccc(C(F)(F)F)cc1 [LEFLUNOMIDE],Not Active,
CC[C@@H](CO)NC(=O)[C@@H]1C=C2c3cccc4[nH]cc(c34)C[C@H]2N(C)C1 [METHYLERGONOVINE],Not Active,
CC(C)(C)NC(=O)[C@@H]1C[C@@H]2CCCC[C@@H]2CN1C[C@@H](O)[C@H](Cc1ccccc1)NC(=O)[C@H](CC(N)=O)NC(=O)c1ccc2ccccc2n1,Not Active,

# System: not listed separately
# Test: DRUGMATRIX: Potassium Channel [KATP] radioligand binding (ligand: [3H] Glyburide)
# Assay type: cell membranes, Membrane
# Conditions: hit-t15; Not Active = under 50% inhibition at 10 µM
Compound,IC50,Ki
O=NN(CCCl)C(=O)NC1CCCCC1 [LOMUSTINE],Not Active,Not Active
CSc1ccc(/C=C2/C(C)=C(CC(=O)O)c3cc(F)ccc32)cc1 [SULINDAC SULFIDE],Not Active,Not Active
SODIUM NITROPRUSSIDE,Not Active,Not Active
Cc1noc(NS(=O)(=O)c2ccc(N)cc2)c1C [SULFISOXAZOLE],Not Active,Not Active
Cc1cccc(N(C)C(=S)Oc2ccc3ccccc3c2)c1 [TOLNAFTATE],Not Active,Not Active
Cc1oncc1C(=O)Nc1ccc(C(F)(F)F)cc1 [LEFLUNOMIDE],Not Active,Not Active
CC[C@@H](CO)NC(=O)[C@@H]1C=C2c3cccc4[nH]cc(c34)C[C@H]2N(C)C1 [METHYLERGONOVINE],Not Active,Not Active
CC(C)(C)NC(=O)[C@@H]1C[C@@H]2CCCC[C@@H]2CN1C[C@@H](O)[C@H](Cc1ccccc1)NC(=O)[C@H](CC(N)=O)NC(=O)c1ccc2ccccc2n1,Not Active,Not Active

# Biological target: T2, Neuropeptide Y receptor type 2 (Homo sapiens, UniProt P49146); further: in other assays of this panel Not Active means under 50% inhibition at 10 µM
# T2 sequence (P49146 whole entry): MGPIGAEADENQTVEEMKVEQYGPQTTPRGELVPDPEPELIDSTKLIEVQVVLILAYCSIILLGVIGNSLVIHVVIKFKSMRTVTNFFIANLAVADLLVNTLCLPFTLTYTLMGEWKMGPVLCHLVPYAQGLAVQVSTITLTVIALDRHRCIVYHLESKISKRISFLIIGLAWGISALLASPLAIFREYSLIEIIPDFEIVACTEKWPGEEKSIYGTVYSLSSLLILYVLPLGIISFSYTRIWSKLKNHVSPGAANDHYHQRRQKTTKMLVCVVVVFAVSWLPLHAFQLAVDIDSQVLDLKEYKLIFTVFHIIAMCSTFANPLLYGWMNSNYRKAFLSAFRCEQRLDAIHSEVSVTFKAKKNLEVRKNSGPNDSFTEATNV
# Assay type: cell membranes, Membrane
# Conditions: kan-ts
Compound,IC50,Ki
O=NN(CCCl)C(=O)NC1CCCCC1 [LOMUSTINE],Not Active,
CSc1ccc(/C=C2/C(C)=C(CC(=O)O)c3cc(F)ccc32)cc1 [SULINDAC SULFIDE],Not Active,
SODIUM NITROPRUSSIDE,Not Active,Not Active
Cc1noc(NS(=O)(=O)c2ccc(N)cc2)c1C [SULFISOXAZOLE],Not Active,
Cc1cccc(N(C)C(=S)Oc2ccc3ccccc3c2)c1 [TOLNAFTATE],Not Active,
Cc1oncc1C(=O)Nc1ccc(C(F)(F)F)cc1 [LEFLUNOMIDE],Not Active,
CC[C@@H](CO)NC(=O)[C@@H]1C=C2c3cccc4[nH]cc(c34)C[C@H]2N(C)C1 [METHYLERGONOVINE],Not Active,
CC(C)(C)NC(=O)[C@@H]1C[C@@H]2CCCC[C@@H]2CN1C[C@@H](O)[C@H](Cc1ccccc1)NC(=O)[C@H](CC(N)=O)NC(=O)c1ccc2ccccc2n1,Not Active,

# System: not listed separately
# Test: DRUGMATRIX: Calcium Channel Type L, Phenylalkylamine radioligand binding (ligand: [3H] (-)-Desmethoxyverapamil (D-888))
# Assay type: cell membranes, Rattus norvegicus, Wistar, Brain, Membrane
# Conditions: Not Active = under 50% inhibition at 10 µM
Compound,IC50,Ki
O=NN(CCCl)C(=O)NC1CCCCC1 [LOMUSTINE],Not Active,Not Active
CSc1ccc(/C=C2/C(C)=C(CC(=O)O)c3cc(F)ccc32)cc1 [SULINDAC SULFIDE],Not Active,Not Active
SODIUM NITROPRUSSIDE,Not Active,Not Active
Cc1noc(NS(=O)(=O)c2ccc(N)cc2)c1C [SULFISOXAZOLE],Not Active,Not Active
Cc1cccc(N(C)C(=S)Oc2ccc3ccccc3c2)c1 [TOLNAFTATE],Not Active,Not Active
Cc1oncc1C(=O)Nc1ccc(C(F)(F)F)cc1 [LEFLUNOMIDE],Not Active,Not Active
CC[C@@H](CO)NC(=O)[C@@H]1C=C2c3cccc4[nH]cc(c34)C[C@H]2N(C)C1 [METHYLERGONOVINE],Not Active,Not Active

# Same assay, conditions: Not Active = under 50% inhibition at 10 µM; read-out: IC50
row,Compound,IC50 [µM]
1,CC(C)(C)NC(=O)[C@@H]1C[C@@H]2CCCC[C@@H]2CN1C[C@@H](O)[C@H](Cc1ccccc1)NC(=O)[C@H](CC(N)=O)NC(=O)c1ccc2ccccc2n1,6.83

# Same assay, conditions: Not Active = under 50% inhibition at 10 µM; read-out: Ki
row,Compound,Ki [µM]
1,CC(C)(C)NC(=O)[C@@H]1C[C@@H]2CCCC[C@@H]2CN1C[C@@H](O)[C@H](Cc1ccccc1)NC(=O)[C@H](CC(N)=O)NC(=O)c1ccc2ccccc2n1,6.65

# Biological target: Cytochrome P450 3A4 (Homo sapiens, UniProt P08684); further: in other assays of this panel Not Active means under 50% inhibition at 10 µM
# Sequence (P08684 whole entry): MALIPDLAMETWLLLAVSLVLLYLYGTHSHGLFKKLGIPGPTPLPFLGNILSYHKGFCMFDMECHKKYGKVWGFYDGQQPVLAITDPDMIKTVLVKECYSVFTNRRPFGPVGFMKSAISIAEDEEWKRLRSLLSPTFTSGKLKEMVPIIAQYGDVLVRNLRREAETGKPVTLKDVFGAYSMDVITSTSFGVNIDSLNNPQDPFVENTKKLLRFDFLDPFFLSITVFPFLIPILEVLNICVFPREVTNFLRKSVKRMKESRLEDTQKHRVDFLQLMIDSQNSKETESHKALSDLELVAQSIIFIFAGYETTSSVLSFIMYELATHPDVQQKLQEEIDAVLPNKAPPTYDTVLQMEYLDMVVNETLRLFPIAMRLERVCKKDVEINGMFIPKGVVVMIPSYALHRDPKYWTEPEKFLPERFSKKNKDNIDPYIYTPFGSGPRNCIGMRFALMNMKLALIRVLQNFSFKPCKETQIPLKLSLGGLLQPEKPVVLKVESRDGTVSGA
# Conditions: bti-tn-5b1-4
Compound,IC50,Ki
O=NN(CCCl)C(=O)NC1CCCCC1 [LOMUSTINE],Not Active,Not Active
CSc1ccc(/C=C2/C(C)=C(CC(=O)O)c3cc(F)ccc32)cc1 [SULINDAC SULFIDE],Not Active,Not Active
SODIUM NITROPRUSSIDE,Not Active,Not Active
Cc1noc(NS(=O)(=O)c2ccc(N)cc2)c1C [SULFISOXAZOLE],Not Active,Not Active
Cc1cccc(N(C)C(=S)Oc2ccc3ccccc3c2)c1 [TOLNAFTATE],Not Active,Not Active
Cc1oncc1C(=O)Nc1ccc(C(F)(F)F)cc1 [LEFLUNOMIDE],Not Active,Not Active
CC[C@@H](CO)NC(=O)[C@@H]1C=C2c3cccc4[nH]cc(c34)C[C@H]2N(C)C1 [METHYLERGONOVINE],Not Active,Not Active
CC(C)(C)NC(=O)[C@@H]1C[C@@H]2CCCC[C@@H]2CN1C[C@@H](O)[C@H](Cc1ccccc1)NC(=O)[C@H](CC(N)=O)NC(=O)c1ccc2ccccc2n1,Not Active,Not Active

# Biological target: C-C chemokine receptor type 5 (Homo sapiens, UniProt P51681); further: in other assays of this panel Not Active means under 50% inhibition at 10 µM
# Sequence (P51681 whole entry): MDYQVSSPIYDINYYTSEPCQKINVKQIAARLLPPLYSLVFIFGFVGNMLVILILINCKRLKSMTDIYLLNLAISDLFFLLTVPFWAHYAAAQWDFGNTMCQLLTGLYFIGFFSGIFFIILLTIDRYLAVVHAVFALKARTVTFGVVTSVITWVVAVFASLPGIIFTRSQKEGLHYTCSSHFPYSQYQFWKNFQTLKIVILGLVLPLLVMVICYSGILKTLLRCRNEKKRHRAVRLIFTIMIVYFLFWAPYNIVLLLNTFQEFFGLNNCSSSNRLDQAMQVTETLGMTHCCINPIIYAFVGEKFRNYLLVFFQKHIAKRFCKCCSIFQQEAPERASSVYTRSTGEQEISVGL
# Assay type: cell membranes, Membrane
# Conditions: hek293
Compound,IC50,Ki
O=NN(CCCl)C(=O)NC1CCCCC1 [LOMUSTINE],Not Active,
CSc1ccc(/C=C2/C(C)=C(CC(=O)O)c3cc(F)ccc32)cc1 [SULINDAC SULFIDE],Not Active,
SODIUM NITROPRUSSIDE,Not Active,Not Active
Cc1noc(NS(=O)(=O)c2ccc(N)cc2)c1C [SULFISOXAZOLE],Not Active,
Cc1cccc(N(C)C(=S)Oc2ccc3ccccc3c2)c1 [TOLNAFTATE],Not Active,
Cc1oncc1C(=O)Nc1ccc(C(F)(F)F)cc1 [LEFLUNOMIDE],Not Active,
CC[C@@H](CO)NC(=O)[C@@H]1C=C2c3cccc4[nH]cc(c34)C[C@H]2N(C)C1 [METHYLERGONOVINE],Not Active,
CC(C)(C)NC(=O)[C@@H]1C[C@@H]2CCCC[C@@H]2CN1C[C@@H](O)[C@H](Cc1ccccc1)NC(=O)[C@H](CC(N)=O)NC(=O)c1ccc2ccccc2n1,Not Active,

# Reference: ChEMBL document CHEMBL1909046, “DrugMatrix in vitro pharmacology data”
